Measured values taken from patent publication US5489604A, “2-saccharinylmethyl aryl and aryloxy acetates useful as proteolytic enzyme inhibitors and compositions and method of use thereof” (Sterling Winthrop, Inc., priority 1994, dated 1996).

Target: T1, human leukocyte elastase (HLE) (Homo sapiens, UniProt P08246)
T1 sequence (P08246 30-267): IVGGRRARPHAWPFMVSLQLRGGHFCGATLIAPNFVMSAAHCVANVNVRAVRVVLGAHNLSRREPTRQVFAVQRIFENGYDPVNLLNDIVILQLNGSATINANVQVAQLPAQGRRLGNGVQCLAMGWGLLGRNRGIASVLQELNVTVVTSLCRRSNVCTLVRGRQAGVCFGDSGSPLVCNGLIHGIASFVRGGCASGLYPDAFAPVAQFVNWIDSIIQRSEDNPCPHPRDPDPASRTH
Assay: inhibition of human leukocyte elastase (HLE): rate of inactivation kon and inhibition constant Ki* (koff/kon)
Type: biochemical
Settings: for Ki: not truly reversible, ratio of rate of reactivation to rate of inactivation of the enzyme, read-out: K*i (inhibition constant Ki * = koff /kon); for kon: rate of inactivation kon of enzymatic activity, values are Kon × 10^-3
Description: Thus, instead of measuring a Ki, a Ki * is calculated which is defined as the ratio of the koff /kon, the rate of reactivation of the enzyme to the rate of inactivation of the enzyme. The values of koff and kon are measured and Ki * is then calculated.
The rate of inactivation, kon, of enzymatic activity was determined for the compounds tested by measuring the enzyme activity of an aliquot of the respective enzyme as a function of time after addition of the test compound. […] The rate of inactivation is then equal to [formula] where [I] is the concentration of the inhibiting compound.
The reactivation constant, koff, is similarly determined, and the inhibition constant, Ki *, is then calculated as […]

Row | Compound | Ki [nM] | kon [M⁻¹ s⁻¹]
1 | COc1cc(C(C)C)c2c(c1)S(=O)(=O)N(COC(=O)[C@@H](OC)c1ccccc1)C2=O [Example 1K] | 0.09 | 102000
2 | COC(C(=O)OCN1C(=O)c2c(C(C)C)cccc2S1(=O)=O)c1ccccc1 (stereo not shown) [Example 1H] | 0.3 | 80000
3 | CC(C)c1cccc2c1C(=O)N(COC(=O)C(C)(C)c1ccccc1)S2(=O)=O [Example 1D] | 1 | 23000
4 | CC(C)c1cccc2c1C(=O)N(COC(=O)C(C)(C)Oc1ccc(Cl)cc1)S2(=O)=O [Example 1E] | 0.6 | 38000
5 | COc1cc(C(C)C)c2c(c1)S(=O)(=O)N(COC(=O)C(C)(O)c1ccccc1)C2=O (stereo not shown) [Example 1J] | 0.12 | 77700
6 | CC(C)(C(=O)OCN1C(=O)c2ccccc2S1(=O)=O)c1ccccc1 [Example 1A] | 18 | 3500
7 | CC(C)(Oc1ccc(Cl)cc1)C(=O)OCN1C(=O)c2ccccc2S1(=O)=O [Example 1B] | 14.5 | 4000
8 | CC(C)(Oc1ccccc1Cl)C(=O)OCN1C(=O)c2ccccc2S1(=O)=O [Example 1C] | 14.4 | 4100
9 | CC(C)c1cccc2c1C(=O)N(COC(=O)C(C)(C)Oc1ccccc1Cl)S2(=O)=O [Example 1F] | 0.8 | 29000
10 | CC(C)c1cccc2c1C(=O)N(COC(=O)C(O)c1ccccc1)S2(=O)=O (stereo not shown) [Example 1G] | 0.26 | 88500
11 | COc1cc(C(C)C)c2c(c1)S(=O)(=O)N(COC(=O)[C@H](OC)c1ccccc1)C2=O [Example 1I] | 0.08 | 118000
